We go through two compounds from US6506885B1, “Monoclonal antibodies to the drug tilmicosin and a method for detecting the same” (The United States of America as represented by the …, priority 2001, dated 2003).

Series [1] deals with monoclonal antibody 9-7-7. Description: competitive indirect ELISA (ciELISA) on (XII) coated plates, antibody 9-7-7. Type of series: binding. Here is the method:
(§1) The supernatant culture fluid from the cloned hybridomas also may be screened to select for those producing antibodies having a high affinity for tilmicosin. Affinity may be measured using solid phase immunoassays such as ELISA, RIA, or equilibrium dialysis using labeled tilmicosin. In the preferred embodiment, affinity is measured by competitive indirect ELISA as described in the Examples, and is conducted at a final antibody concentration (dilution from the tissue culture supernatant) to give 50% of maximal binding to a tilmicosin- or 23-deoxo-23-demycinosyl tilmicosin-carrier complex coated substrate or assay well (i.e., the concentration of the antibody that results in 50% of the plateau activity in direct binding ELISA). […] Following incubation and washing, bound antibody in the wells is determined in the same manner as the db-ELISA. Percent inhibition may be calculated as (1−B/Bo)×100, where B is the optical density (OD) of a well with a competitor and Bo is the mean OD of the wells without competitor (control). […]
(§2) The cells which were positive in the initial screening and expanded were analyzed by competitive indirect ELISA (ciELISA) below for inhibition of antibody binding in the presence of free (unconjugated) tilmicosin on (XII) coated antigen plates. […]
Background: In an ELISA, binding on a coated surface is turned into a signal by an enzyme label.

Series [2] concerns monoclonal antibody 9-1-4 (Til-5). Description: competitive indirect ELISA (ciELISA) on (XII) coated plates, antibody 9-1-4. The series is classed as binding. Here is the method:
as §1, §2

In series [3] the test system is monoclonal antibody 37-2-6. As to the kind of experiment: competitive indirect ELISA (ciELISA) on (XII) coated plates, antibody 37-2-6. The series is classed as binding. Here is the method: as §1, §2
The test system of series [4] is monoclonal antibody 47-1-1. Description: competitive indirect ELISA (ciELISA) on (XII) coated plates, antibody 47-1-1. The series is classed as binding. As to the method: as §1, §2
The test system of series [5] is monoclonal antibody 37-4-5 (Til-1). As to the kind of experiment: competitive indirect ELISA (ciELISA) on (XII) coated plates, antibody 37-4-5. Type of series: binding. Here is the method:
as §1, §2

Series [6] deals with monoclonal antibody 9-5-3. Description: competitive indirect ELISA (ciELISA) on (XII) coated plates, antibody 9-5-3. The series is classed as binding. As to the method:
as §1, §2

The conditions of series [7]: bovine lung tissue; after serum levels dropped below therapeutic concentrations; cited from earlier work.
Setting [8] is: (IC50 of Tilmicosin)/(IC50 of other Compound) X100, — = no cross-reactivity observed.

As to `CC1CNCC(C)C1` (stereo not shown) [3,5-dimethyl piperidine], the “% Competition (percentage of cross-reactivity)” value in series [1] (setting [8]) came to 26%; in series [2] (setting [8]), 18%; in series [3] (setting [8]), 24%; in series [4] (setting [8]), 17%; in series [5] (setting [8]), 19%; in series [6] (setting [8]), 72%. Besides, the “IC50, pmol/well” value was found to be 40.6 pmol/well in series [1] (free compound as competitor); 41.5 pmol/well in series [2] (free compound as competitor); 44.2 pmol/well in series [3] (free compound as competitor); 44.2 pmol/well in series [4] (free compound as competitor); 61.8 pmol/well in series [5] (free compound as competitor); 35.3 pmol/well in series [6] (free compound as competitor).

With `CCC1OC(=O)CC(O)C(C)C(OC2OC(C)C(O)C(N(C)C)C2O)C(CCN2CC(C)CC(C)C2)CC(C)C(=O)C=CC(C)=CC1COC1OC(C)C(O)C(OC)C1OC` (stereo not shown) [Tilmicosin], in series [7], the “time lung concentrations exceed the P. haemolytica MIC after dosage” value is “at least 72 hours”.
